PMC7314595 (Angewandte Chemie (International ed. in English), 2016)
“Also recorded” adds a separate entry of the source.

Experiments:
[1] = target: BRD2 BD1 (Homo sapiens, UniProt P25440); test: BRD2 BD1 TR-FRET; assay type: binding
[2] = system: genes involved in cell cycle and division; test: Expression of genes involved in cell cycle and division; assay type: cell-based
[3] = target: T1, full-length ATAD2 / histone H3.3 (Homo sapiens, UniProt Q6PL18); test: Cellular NanoBRET displacement, full-length ATAD2 from histone H3.3; assay type: cell-based
T1 sequence (Q6PL18 1-1390): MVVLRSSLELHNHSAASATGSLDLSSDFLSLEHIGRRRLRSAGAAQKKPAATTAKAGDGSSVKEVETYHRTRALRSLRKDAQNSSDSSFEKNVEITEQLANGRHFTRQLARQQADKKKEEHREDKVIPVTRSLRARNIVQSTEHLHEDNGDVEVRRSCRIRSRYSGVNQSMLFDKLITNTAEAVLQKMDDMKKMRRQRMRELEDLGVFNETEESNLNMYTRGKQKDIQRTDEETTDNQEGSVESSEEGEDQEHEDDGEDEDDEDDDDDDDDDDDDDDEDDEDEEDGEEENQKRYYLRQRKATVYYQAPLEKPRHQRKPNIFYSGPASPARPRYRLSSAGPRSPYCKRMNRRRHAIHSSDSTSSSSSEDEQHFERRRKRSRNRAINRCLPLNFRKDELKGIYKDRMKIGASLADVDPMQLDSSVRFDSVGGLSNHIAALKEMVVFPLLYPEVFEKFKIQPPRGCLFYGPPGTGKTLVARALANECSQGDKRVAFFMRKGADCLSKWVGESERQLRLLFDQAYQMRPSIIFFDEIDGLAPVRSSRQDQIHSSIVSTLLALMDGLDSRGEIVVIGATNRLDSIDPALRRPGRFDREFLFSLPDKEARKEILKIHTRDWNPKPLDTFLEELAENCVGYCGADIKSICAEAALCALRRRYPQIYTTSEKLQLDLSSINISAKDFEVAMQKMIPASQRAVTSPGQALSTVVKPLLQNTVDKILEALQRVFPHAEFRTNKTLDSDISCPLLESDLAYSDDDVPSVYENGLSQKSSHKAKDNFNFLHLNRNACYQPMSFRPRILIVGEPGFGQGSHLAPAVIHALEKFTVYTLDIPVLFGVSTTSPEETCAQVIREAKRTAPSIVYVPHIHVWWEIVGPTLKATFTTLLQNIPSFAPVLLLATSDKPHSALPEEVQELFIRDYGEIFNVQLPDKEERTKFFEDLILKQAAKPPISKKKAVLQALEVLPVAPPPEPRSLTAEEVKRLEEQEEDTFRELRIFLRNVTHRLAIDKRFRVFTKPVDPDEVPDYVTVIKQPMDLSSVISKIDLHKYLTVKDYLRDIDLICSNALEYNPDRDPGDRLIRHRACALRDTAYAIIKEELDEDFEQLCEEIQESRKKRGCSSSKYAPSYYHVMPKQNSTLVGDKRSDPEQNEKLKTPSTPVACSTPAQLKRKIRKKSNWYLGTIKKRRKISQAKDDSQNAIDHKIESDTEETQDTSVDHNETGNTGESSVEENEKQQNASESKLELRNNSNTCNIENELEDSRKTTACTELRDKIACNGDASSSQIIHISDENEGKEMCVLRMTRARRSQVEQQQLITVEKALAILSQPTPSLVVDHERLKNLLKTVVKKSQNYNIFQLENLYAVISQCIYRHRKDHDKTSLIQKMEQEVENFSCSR

[4] = system: colony formation; test: Colony formation; assay type: cell-based
[5] = system: internal GSK panel of 40 targets considered as potential liabilities; test: Internal GSK panel of 40 liability targets; conditions: data not shown
[6] = target: T2, ATAD2B bromodomain (Homo sapiens, UniProt Q9ULI0); test: ATAD2B TR-FRET; assay type: binding
T2 sequence (Q9ULI0 951-1066 limits assumed): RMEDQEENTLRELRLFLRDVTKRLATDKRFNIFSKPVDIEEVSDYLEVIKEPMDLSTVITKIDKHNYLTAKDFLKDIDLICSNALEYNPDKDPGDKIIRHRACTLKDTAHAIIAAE

[7] = target: T3, ATAD2 bromodomain / histone H3.3 (Homo sapiens, UniProt Q6PL18); test: Cellular NanoBRET displacement, ATAD2 bromodomain from histone H3.3; assay type: cell-based; conditions: NanoBRET (Promega)
T3 sequence (Q6PL18 980-1092 limits assumed): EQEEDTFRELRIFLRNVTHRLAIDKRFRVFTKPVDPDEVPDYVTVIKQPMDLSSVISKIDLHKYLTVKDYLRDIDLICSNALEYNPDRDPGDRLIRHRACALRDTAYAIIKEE

[8] = CLND solubility; assay type: physicochemical
[9] = target: tandem BRD4 bromodomains (Homo sapiens, UniProt O60885); test: BRD4 tandem isothermal titration calorimetry; assay type: binding
[10] = Chrom logD; assay type: physicochemical; conditions: pH 7.4

Sequence of BRD2 BD1 (P25440 74-180 limits assumed): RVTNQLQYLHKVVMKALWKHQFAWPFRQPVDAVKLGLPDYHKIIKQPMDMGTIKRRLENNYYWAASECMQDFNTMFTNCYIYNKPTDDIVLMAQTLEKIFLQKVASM

## CO[C@H]1CNC[C@@H](OCC2CCC(F)(F)CC2)[C@@H]1Nc1ncc(-c2cncc(C)c2)c2cc(C)c(=O)[nH]c12 [Compound 16]
[1]
  IC50: ≥ 39.8 µM
[2]
  Inhibition of genes involved in cell cycle and division: only seen at high compound concentrations
[3]
  Displacement of full-length ATAD2 from histone H3.3: ineffective; also recorded: does not displace full-length ATAD2
[4]
  Effects on colony formation: only seen at high compound concentrations
[5]
  Off-target activity against internal GSK panel of 40 targets: inactive
[6]
  IC50: 0.02 µM
[7]
  Displacement of labelled ATAD2 bromodomain from histone H3.3: dose-dependent displacement; also recorded: displaces the ATAD2 bromodomain construct
[8]
  solubility: > 439 µM
[9]
  Interaction with tandem BRD4 bromodomains by ITC: no interaction detected
[10]
  chromatographic logD: 3.2
